Source: ChEMBL document CHEMBL1201862, “PubChem BioAssay data set” (2004)
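48-hour exposure; five concentrations; linearly interpolated endpoints. At the GI50, growth is halved.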 Activity calls are given as the source filed them. Cut-off read from the data, not from the text of the source: active = GI50 up to about 1.1 µM and inactive = higher.

Columns and labels:
Test in all cases: growth of human tumour cells (NCI), 48 h
786-0 = system: 786-0
A549 = system: A549
ACHN = system: ACHN
CCRF-CEM = system: CCRF-CEM
COLO 205 = system: COLO 205
DLD-1 = system: DLD-1
DMS-114 = system: DMS-114
DMS-273 = system: DMS-273
EKVX = system: EKVX
HCC 2998 = system: HCC 2998
HCT-116 = system: HCT-116
HCT-15 = system: HCT-15
HL-60 = system: HL-60
HOP-18 = system: HOP-18
HOP-62 = system: HOP-62
HOP-92 = system: HOP-92
HT-29 = system: HT-29
IGROV-1 = system: IGROV-1
K562 = system: K562
KM12 = system: KM12
LXFL 529 = system: LXFL 529
M14 = system: M14
M19-MEL = system: M19-MEL
MOLT-4 = system: MOLT-4
Malme-3M = system: Malme-3M
NCI-H226 = system: NCI-H226
NCI-H23 = system: NCI-H23
NCI-H460 = system: NCI-H460
NCI-H522 = system: NCI-H522
OVCAR-3 = system: OVCAR-3
OVCAR-4 = system: OVCAR-4
OVCAR-5 = system: OVCAR-5
OVCAR-8 = system: OVCAR-8
RPMI-8226 = system: RPMI-8226
SF-268 = system: SF-268
SF-295 = system: SF-295
SF-539 = system: SF-539
SK-MEL-28 = system: SK-MEL-28
SK-MEL-2 = system: SK-MEL-2
SK-MEL-5 = system: SK-MEL-5
SK-OV-3 = system: SK-OV-3
SN12C = system: SN12C
SNB-19 = system: SNB-19
SNB-75 = system: SNB-75
SNB-78 = system: SNB-78
TK-10 = system: TK-10
U-251 = system: U-251
UACC-257 = system: UACC-257
UO-31 = system: UO-31
XF498 = system: XF498
A498 = system: A498
CAKI-1 = system: CAKI-1
KM-20L2 = system: KM-20L2
LOX IMVI = system: LOX IMVI
RXF 393 = system: RXF 393
SR = system: SR
SW-620 = system: SW-620
UACC-62 = system: UACC-62

In the case of `COc1ccc(N2C(=O)c3c(c4[nH]c5ccc(OC)cc5c4c4ccc(C(C)(C)C)cc34)C2=O)cc1`, the GI50 (786-0) is reported as > 100 µM (inactive), the GI50 (A549) is reported as > 100 µM (inactive) and the GI50 (ACHN) is reported as > 100 µM (inactive). For the same compound, the GI50 (CCRF-CEM) was > 100 µM (inactive), the GI50 (COLO 205) was > 100 µM (inactive) and the GI50 (DLD-1) was > 100 µM (inactive). For the same compound, the GI50 (DMS-114) was > 100 µM (inactive), the GI50 (DMS-273) was > 100 µM (inactive) and the GI50 (EKVX) was > 100 µM (inactive). For the same compound, the GI50 (HCC 2998) was > 100 µM (inactive), the GI50 (HCT-116) was > 100 µM (inactive) and the GI50 (HCT-15) was greater than 100 µM. For the same compound, the GI50 (HL-60) was 53.2 µM (inactive), the GI50 (HOP-18) was > 100 µM (inactive) and the GI50 (HOP-62) was > 100 µM (inactive). The GI50 (HOP-92) was > 100 µM (inactive), the GI50 (HT-29) was > 100 µM (inactive) and the GI50 (IGROV-1) was > 100 µM (inactive). The GI50 (K562) was > 100 µM (inactive), the GI50 (KM12) was > 100 µM (inactive) and the GI50 (LXFL 529) was > 100 µM (inactive). For the same compound, the GI50 (M14) was > 100 µM (inactive), the GI50 (M19-MEL) was > 100 µM (inactive) and the GI50 (MOLT-4) was > 100 µM (inactive). The GI50 (Malme-3M) was > 100 µM (inactive), the GI50 (NCI-H226) was > 100 µM (inactive) and the GI50 (NCI-H23) was > 100 µM (inactive). For the same compound, the GI50 (NCI-H460) was > 100 µM (inactive), the GI50 (NCI-H522) was > 100 µM (inactive) and the GI50 (OVCAR-3) was > 100 µM (inactive). For the same compound, the GI50 (OVCAR-4) was > 100 µM (inactive), the GI50 (OVCAR-5) was > 100 µM (inactive) and the GI50 (OVCAR-8) was 92.7 µM (inactive). For the same compound, the GI50 (RPMI-8226) was > 100 µM (inactive), the GI50 (SF-268) was > 100 µM (inactive) and the GI50 (SF-295) was > 100 µM (inactive). For the same compound, the GI50 (SF-539) was > 100 µM (inactive), the GI50 (SK-MEL-28) was > 100 µM (inactive) and the GI50 (SK-MEL-2) was > 100 µM (inactive). For the same compound, the GI50 (SK-MEL-5) was > 100 µM (inactive), the GI50 (SK-OV-3) was > 100 µM (inactive) and the GI50 (SN12C) was > 100 µM (inactive). The GI50 (SNB-19) was > 100 µM (inactive), the GI50 (SNB-75) was > 100 µM (inactive) and the GI50 (SNB-78) was > 100 µM (inactive). For the same compound, the GI50 (TK-10) was > 100 µM (inactive), the GI50 (U-251) was > 100 µM (inactive) and the GI50 (UACC-257) was > 100 µM (inactive). For the same compound, the GI50 (UO-31) was > 100 µM (inactive) and the GI50 (XF498) was > 100 µM (inactive).

`O=S(=O)(c1ccccc1)N1N=C2c3ccccc3CCC[C@H]2C1c1ccccc1` (stereo partly drawn) was tested, and the GI50 (786-0) was > 100 µM (inactive), the GI50 (A498) was > 100 µM (inactive) and the GI50 (A549) was > 100 µM (inactive). The GI50 (ACHN) was > 100 µM (inactive), the GI50 (CAKI-1) was > 100 µM (inactive) and the GI50 (CCRF-CEM) was > 100 µM (inactive). The GI50 (COLO 205) was > 100 µM (inactive), the GI50 (DLD-1) was > 100 µM (inactive) and the GI50 (DMS-114) was > 100 µM (inactive). The GI50 (DMS-273) was > 100 µM (inactive), the GI50 (EKVX) was > 84.3 µM (inactive) and the GI50 (HCC 2998) was > 100 µM (inactive). The GI50 (HCT-116) was > 100 µM (inactive), the GI50 (HCT-15) was greater than 100 µM and the GI50 (HL-60) was > 100 µM (inactive). The GI50 (HOP-18) was > 100 µM (inactive), the GI50 (HOP-62) was > 100 µM (inactive) and the GI50 (HOP-92) was > 100 µM (inactive). The GI50 (HT-29) was > 100 µM (inactive), the GI50 (IGROV-1) was > 100 µM (inactive) and the GI50 (K562) was > 100 µM (inactive). For the same compound, the GI50 (KM-20L2) was > 100 µM (inactive), the GI50 (KM12) was > 92.3 µM (inactive) and the GI50 (LOX IMVI) was > 87.9 µM (inactive). For the same compound, the GI50 (LXFL 529) was > 100 µM (inactive), the GI50 (M14) was > 100 µM (inactive) and the GI50 (M19-MEL) was > 100 µM (inactive). For the same compound, the GI50 (MOLT-4) was > 87.7 µM (inactive), the GI50 (Malme-3M) was > 100 µM (inactive) and the GI50 (NCI-H226) was > 66.1 µM (inactive). For the same compound, the GI50 (NCI-H23) was > 100 µM (inactive), the GI50 (NCI-H460) was 98.6 µM (inactive) and the GI50 (NCI-H522) was > 100 µM (inactive). For the same compound, the GI50 (OVCAR-3) was > 100 µM (inactive), the GI50 (OVCAR-4) was > 100 µM (inactive) and the GI50 (OVCAR-5) was > 100 µM (inactive). The GI50 (OVCAR-8) was > 100 µM (inactive), the GI50 (RPMI-8226) was > 100 µM (inactive) and the GI50 (RXF 393) was > 100 µM (inactive). For the same compound, the GI50 (SF-268) was > 100 µM (inactive), the GI50 (SF-295) was > 100 µM (inactive) and the GI50 (SF-539) was > 100 µM (inactive). For the same compound, the GI50 (SK-MEL-28) was > 100 µM (inactive), the GI50 (SK-MEL-2) was > 100 µM (inactive) and the GI50 (SK-MEL-5) was > 100 µM (inactive). For the same compound, the GI50 (SK-OV-3) was 34.2 µM (inactive), the GI50 (SN12C) was > 100 µM (inactive) and the GI50 (SNB-19) was > 100 µM (inactive). For the same compound, the GI50 (SNB-75) was > 74.6 µM (inactive), the GI50 (SNB-78) was > 100 µM (inactive) and the GI50 (SR) was 95.7 µM (inactive). The GI50 (SW-620) was > 100 µM (inactive), the GI50 (TK-10) was > 100 µM (inactive) and the GI50 (U-251) was > 100 µM (inactive). For the same compound, the GI50 (UACC-257) was > 100 µM (inactive), the GI50 (UACC-62) was > 87.1 µM (inactive) and the GI50 (UO-31) was > 60.8 µM (inactive). The GI50 (XF498) was > 100 µM (inactive).
